Data on 40 compounds can be found in patent US20150031686A1, “PHENYL-OXAZOLYL DERIVATIVES, PREPARATION METHOD THEREOF, AND RELATED APPLICATION OF THE PHENYL-OXAZOLYL DERIVATIVES AS AN IMPDH INHIBITOR” (INSTITUTE OF MEDICINAL BIOTECHNOLOGY, CHINESE ACADEMY OF …, priority 2012, published 2015).

≈ marks a conversion by molar mass, not a printed value.

Experiment [1] deals with Coxsackie virus type B3 (COX-B3). Put plainly: Anti-Coxsackie virus type B3 (COX-B3) activity, CPE in Vero cells. It is filed as cell-based. The settings on record: Reed-Muench. The protocol: (§1) With Vero (African green monkey kidney) cells as viral hosts, inhibitory effects of the compounds of present invention on the grades of pathological lesions by coxsackievirus B3 (COX-B3), B6 (COX-B6) viruses in Vero cells were determined. The measured results of viral inhibitory activity of the compounds are shown in Table 3 and Table 4; wherein RBV is the control drug ribavirin. The inhibitory activities of the measured compounds against coxsackievirus B3, B6 were stronger than the control.
(§2) Screening of Anti-B3, B6 Type Coxsackie Viruses (COX-B3, COX-B6) Activity of the Samples
(§3) Prepare stock solutions of COX-B3 (or COX-B6) virus strains as well as tested compounds in DMSO before use. Before tests, dilute the stock solution with culture solution into a certain concentration and then dilute 3 times to make a total of eight dilutions. Use ribavirin (RBV) as positive control. Test procedures are as follows: seed Vero cells into 96-well culture plates, infect with 10^−5 Coxsackie virus of B3 (or B6) type, 24 hours later; adsorb subsequently for 2 hours, then discard the virus solution, add in the sample compounds and the positive control according to the abovementioned dilutions, set cell control wells and virus control wells simultaneously. When the cytopathic effect (CPE) of cells in the virus control wells reach 4+, observe CPE of the cells in each group. Use Reed-Muench method to calculate 50% inhibitory concentration (IC50) of the sample compounds against coxsackie virus B3 (or B6) type.

The test system of experiment [2] is Coxsackie virus type B6 (COX-B6). Put plainly: Anti-Coxsackie virus type B6 (COX-B6) activity, CPE in Vero cells. It counts as cell-based. The settings on record: Reed-Muench. The protocol: as §1, §2, §3

In the case of `COc1cc(/N=C/c2cccs2)ccc1-c1cnco1` [Compound 9, N-(thien-2-ylmethylene)-3-methoxy-4-(oxazol-5-yl) aniline], the IC50 in experiment [1] and in experiment [2] was 12.8 µg/mL (≈ 45.1 µM) each time.

As to `COc1cc(NN=C(C#N)C#N)ccc1-c1cnco1` [Compound 66], the IC50 (usually the concentration that inhibits the measured activity by half) in experiment [1] was found to be 1.43 µg/mL (≈ 5.35 µM); in experiment [2], 4.28 µg/mL (≈ 16 µM). Taken in the same sequence, the figures for `COc1ccc(CNc2ccc(-c3cnco3)c(OC)c2)cn1` [Compound 60, N-(6-methoxy-pyridin-3-ylmethyl)-3-methoxy-4-(oxazol-5-yl) aniline] were 0.57 µg/mL (≈ 1.83 µM) and 3.15 µg/mL (≈ 10.1 µM). As to `COc1ccc(-c2cnco2)cc1NCc1ccc(-c2ccccc2)s1` [Compound 26, N-(5-phenylthien-2-ylmethyl)-2-methoxy-5-(oxazol-5-yl) aniline], the IC50 in experiment [1] came to 0.57 µg/mL (≈ 1.57 µM). On the same count and under the same terms, next, `COc1cc(CNCc2ccc(Cl)s2)ccc1-c1cnco1` [Compound 77, N-(5-chlorothien-2-ylmethyl)-3-methoxy-4-(oxazol-5-yl) benzylamine]: 0.35 µg/mL (≈ 1.05 µM); `COc1ccc(-c2cnco2)cc1NCC1CCN(C)CC1` [Compound 33, N-(2-methoxy-5-oxazol-5-ylphenyl)-1-methylpiperidin-4-yl methylamine]: 0.64 µg/mL (≈ 2.12 µM). Still for that read-out and setting: under `COc1ccc(-c2cnco2)cc1NCc1cccnn1` [Compound 38, N-(pyridazin-3-yl-methyl)-2-methoxy-5-oxazol-5-yl aniline] stands 0.88 µg/mL (≈ 3.12 µM).

With `COc1ccc(-c2cnco2)cc1NCc1coc2ccccc12` [Compound 50, N-(benzofuran-3-ylmethyl)-2-methoxy-5-(oxazol-5-yl) aniline], the IC50 in experiment [1] came out at 0.46 µg/mL (≈ 1.44 µM). The same measure, in the same setting: under `COc1ccc(-c2cnco2)cc1/N=C/c1ccsc1` [Compound 39, N-(thien-3-ylmethylene)-2-methoxy-5-(oxazol-5-yl)-aniline] stands 11.1 µg/mL (≈ 39.1 µM); under `COc1cc(NCCCS(=O)(=O)O)ccc1-c1cnco1` [Compound 70, 3-[3-methoxy-4-(oxazol-5-yl)-anilino]-1-propanesulfonic acid], 155 µg/mL (≈ 497 µM). Still for that read-out and setting: under `COc1ccc(-c2cnco2)cc1NCc1csc2c(C)c(Br)ccc12` [Compound 40, N-(6-bromo-7-methyl-benzothien-3-ylmethyl)-2-methoxy-5-oxazol-5-yl aniline] stands 0.26 µg/mL (≈ 0.606 µM). On the same count and under the same terms, under `COc1ccc(-c2cnco2)cc1NCc1csc(-c2ccccc2)c1` [Compound 36, N-(5-phenylthien-3-ylmethyl)-2-methoxy-5-(oxazol-5-yl) aniline] stands 0.59 µg/mL (≈ 1.63 µM); under `CCC(=O)N(Cc1csc(C)c1)c1cc(-c2cnco2)ccc1OC` [Compound 32], 0.68 µg/mL (≈ 1.91 µM). Regarding `COc1cc(/N=C/c2ccc(F)cc2)ccc1-c1cnco1` [Compound 64, N-(4-Fluorophenylmethylidene)-3-methoxy-4-(oxazol-5-yl)-aniline], the values for the IC50 in experiment [1] and in experiment [2] were 4.28 µg/mL (≈ 14.4 µM) and 17.2 µg/mL (≈ 58.2 µM), respectively.

As to `COc1cc(NC/C=C(/C)CCC=C(C)C)ccc1-c1cnco1` [Compound 71, N-(3,7-dimethyl-octa-2,6-dienyl)-3-methoxy-4-(oxazol-5-yl) aniline], the IC50 is 1.25 µg/mL (≈ 3.83 µM) in experiment [1] and above 0.82 µg/mL in experiment [2]. For `CCc1sc(CNc2ccc(-c3cnco3)c(OC)c2)cc1Br` [Compound 97, N-(4-bromo-5-ethylthien-2-ylmethyl) 3-methoxy-4-(oxazol-5-yl) aniline], in experiment [1], the IC50 came out at 0.23 µg/mL (≈ 0.585 µM). Still for that read-out and setting: under `COc1cc(N(CCc2cc3ccccc3s2)C(=O)C(C)Br)ccc1-c1cnco1` (stereo not shown) [Compound 80, N-(2-benzothien-2-yl-ethyl)-N-(3-methoxy-4-oxazol-5-yl)-2-bromopropionamide] stands 0.24 µg/mL (≈ 0.494 µM).

For the compound `NC(=O)c1ncn([C@@H]2O[C@H](CO)[C@@H](O)[C@H]2O)n1` [RBV, ribavirin, reference compound], the IC50 in experiment [1] and in experiment [2] was 222 µg/mL (≈ 910 µM) in each case. On to `COc1ccc(-c2cnco2)cc1N` [Compound 67, 2-methoxy-5-(oxazol-5-yl) aniline], for which, in experiment [1], the IC50 came out at 1.88 µg/mL (≈ 9.88 µM).

Turning to `COc1ccc(-c2cnco2)cc1NCc1cc2cc(Cl)ccc2s1` [Compound 30, N-(5-chlorobenzothien-2-ylmethyl)-2-methoxy-5-(oxazol-5-yl) aniline], in experiment [1], the IC50 came to 0.54 µg/mL (≈ 1.46 µM). Still for that read-out and setting: next, `COc1ccc(-c2cnco2)cc1NCc1ccc(Br)o1` [Compound 45, N-(5-bromofuran-2-ylmethyl)-2-methoxy-5-(oxazol-5-yl) aniline]: 0.88 µg/mL (≈ 2.52 µM). Take `COc1cc(NCc2cccnc2Cl)ccc1-c1cnco1` [Compound 59, N-(2-chloropyridin-3-ylmethyl)-3-methoxy-4-(oxazol-5-yl) aniline]: the IC50 was 1.9 µg/mL (≈ 6.02 µM) in experiment [1] and 1.05 µg/mL (≈ 3.33 µM) in experiment [2]. Consider `COc1ccc(-c2cnco2)cc1NCc1csc(Cl)c1` [Compound 34, N-(5-chlorothien-3-ylmethyl)-2-methoxy-5-(oxazol-5-yl) aniline], for which the IC50 in experiment [1] was 0.57 µg/mL (≈ 1.78 µM). `COc1cc(NS(C)(=O)=O)ccc1-c1cnco1` [Compound 68]: the IC50 is 1.53 µg/mL (≈ 5.7 µM) in experiment [1] and 7.41 µg/mL (≈ 27.6 µM) in experiment [2].

In experiment [1], `COc1cc(/N=C/c2csc(C)c2)ccc1-c1cnco1` [Compound 19, N-(5-methylthien-3-ylmethylene)-3-methoxy-4-(oxazol-5-yl) aniline] yielded an IC50 of 12.8 µg/mL (≈ 43 µM). Same read-out and setting: under `COc1cc(N(C)Cc2csc(C)c2)ccc1-c1cnco1` [Compound 12, N-methyl-N-(5-methylthien-3-ylmethyl)-3-methoxy-4-(oxazol-5-yl) aniline] stands 0.23 µg/mL (≈ 0.732 µM); under `COc1cc(NCc2c(Cl)nc(Cl)nc2Cl)ccc1-c1cnco1` [Compound 43, N-(2,4,6-trichloropyrimidin-5-ylmethyl)-3-methoxy-4-(oxazol-5-yl) aniline], 1.03 µg/mL (≈ 2.67 µM). As for `COc1ccc2[nH]cc(CNc3ccc(-c4cnco4)c(OC)c3)c2c1` [Compound 52, N-(5-methoxy-1H-indol-3-ylmethyl)-3-methoxy-4-(oxazol-5-yl) aniline], the IC50 was 3.25 µg/mL (≈ 9.3 µM) in experiment [1] and above 2.47 µg/mL in experiment [2]. `COc1cc(NS(=O)(=O)c2cccs2)ccc1-c1cnco1` [Compound 98, N-(thien-2-ylsulfonyl)-3-methoxy-4-oxazole-5-yl aniline] returned an IC50 in experiment [1] of 0.88 µg/mL (≈ 2.62 µM). The same measure, in the same setting: under `Cc1ccc(CNCc2ccc(-c3cnco3)c(Cl)c2)s1` [Compound 89, N-(5-methylthien-2-ylmethyl)-3-chloride-4-oxazol-5-yl benzylamine] stands 0.26 µg/mL (≈ 0.815 µM); under `COc1cc(CNCc2csc3ccccc23)ccc1-c1cnco1` [Compound 85, N-(benzothien-3-ylmethyl)-3-methoxy-4-(oxazol-5-yl) benzylamine], 0.44 µg/mL (≈ 1.26 µM). Compound `COc1cc(NCCc2ccc(Br)s2)ccc1-c1cnco1` [Compound 73, N-[2-(5-bromothien-2-yl)-ethyl]-3-methoxy-4-(oxazol-5-yl) aniline] showed an IC50 in experiment [1] of 0.35 µg/mL (≈ 0.923 µM). The same measure, in the same setting: next, `COc1cc(CNCc2cccc3nonc23)ccc1-c1cnco1` [Compound 78, N-(benzo[1,2,5]oxadiazol-4-ylmethyl)-3-methoxy-4(oxazol-5-yl) benzylamine]: 0.36 µg/mL (≈ 1.07 µM). In experiment [1], `COc1cc(NCc2ncc(Cl)nc2Cl)ccc1-c1cnco1` [Compound 44, N-(3,5-dichloroperazin-2-ylmethyl)-3-methoxy-4-(oxazol-5-yl) aniline] had an IC50 of 0.69 µg/mL (≈ 1.96 µM). Still for that read-out and setting: next, `COc1cc(CNCc2ccc(C)s2)ccc1-c1cnco1` [Compound 76, N-(5-methylthien-2-ylmethyl)-3-methoxy-4-(oxazol-5-yl) benzylamine]: 0.24 µg/mL (≈ 0.763 µM); `COc1cc(NCCc2nnc3ccccc3c2Cl)ccc1-c1cnco1` [Compound 81, N-[2-(4-chlorocinnolin-3-yl)-ethyl]-3-methoxy-4-(oxazol-5-yl) aniline]: 0.29 µg/mL (≈ 0.761 µM). The same measure, in the same setting: under `COc1cc(NCc2csc(Cl)c2)ccc1-c1cnco1` [Compound 14, N-(5-chlorothien-3-ylmethyl)-3-methoxy-4-(oxazol-5-yl) aniline] stands 0.44 µg/mL (≈ 1.37 µM); under `COc1ccc(-c2cnco2)cc1NCc1ccc(CBr)s1` [Compound 25, N-(5-bromomethylthien-2-ylmethyl)-2-methoxy-5-(oxazol-5-yl) aniline], 0.53 µg/mL (≈ 1.4 µM); under `COc1cc(CN(C)Cc2csc3ccc(Cl)cc23)ccc1-c1cnco1` [Compound 87, N-methyl-N-(5-chlorobenzothien-3-ylmethyl)-3-methoxy-4-(oxazol-5-yl) benzylamine], 0.35 µg/mL (≈ 0.877 µM).

In turn, `COc1cc(NCc2csc(-c3ccccc3)c2)ccc1-c1cnco1` [Compound 16, N-(5-phenylthien-3-ylmethyl)-3-methoxy-4-(oxazol-5-yl) aniline] yielded an IC50 in experiment [1] of 0.45 µg/mL (≈ 1.24 µM).
